Assays:
[1] = test system: TK-10; experiment: NCI SRB cytotoxicity, renal TK-10; type: cell-based; settings: Homo sapiens, 48 h exposure
Method in brief: (§1)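 Per NCI protocol, each line receives a minimum of five compound levels (10-fold steps) for 48 h without washout. Growth is measured by sulforhodamine B and expressed as percent of untreated control cells.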

[2] = test system: UACC-257; experiment: NCI SRB cytotoxicity, melanoma UACC-257; type: cell-based; settings: Homo sapiens, 48 h exposure
Method in brief: as §1

[3] = test system: SK-MEL-2; experiment: NCI SRB cytotoxicity, melanoma SK-MEL-2; type: cell-based; settings: Homo sapiens, 48 h exposure
Method in brief: as §1

[4] = test system: HS 578T; experiment: NCI SRB cytotoxicity, breast HS 578T; type: cell-based; settings: Homo sapiens, 48 h exposure
Method in brief: as §1

[5] = test system: HCT-116; experiment: NCI SRB cytotoxicity, colon HCT-116; type: cell-based; settings: Homo sapiens, 48 h exposure
Method in brief: as §1

[6] = test system: DU-145; experiment: NCI SRB cytotoxicity, prostate DU-145; type: cell-based; settings: Homo sapiens, 48 h exposure
Experimental: (§2) The pyrazolochalcones (7e, 8e, 10e, 11e, 12e, 13e and 8f) have been tested against fifty nine human tumor cell lines derived from nine cancer types (leukemia, non-small cell lung cancer, colon cancer, CNS cancer, melanoma, ovarian cancer, renal cancer, prostate cancer and breast cancer) as per the NCI protocol. For each compound, dose response curves for individual cell lines have been measured at a minimum of five concentrations at 10 fold dilutions. A protocol of 48 h continuous drug exposure has been used, and a sulforhodamine B (SRB) protein assay has been used to estimate cell viability or growth. The concentration for 50% cell growth inhibition (GI50), 50% cell death (LC50, 50% growth) and total cell growth inhibition (TGI, 0% growth) values were tabulated (Table-1). DMSO was used as control to calculate the values of GI50, LC50 and TGI. The compounds 7e, 8e, 10e, 11e, 12e, 13e and 8f has been evaluated for their in vitro cytotoxicity in […] cell lines from nine human cancer types of leukemia (K-562, SR), non-small cell lung (Hop-62, NCI-H226, NCI-H522), colon (HCT-116, HCT-15, HCC-2998), CNS (SF-539), melanoma (SK-MEL-5, UACC-62, M14), ovarian (IGROV1), renal (A498), prostate (PC3) and breast (BT-549, MDA-MB-435, HS578T) origin. The results are expressed as percent of cell growth determined relative to that of untreated control cells (Table 2).

[7] = test system: SF-539; experiment: NCI SRB cytotoxicity, CNS SF-539; type: cell-based; settings: Homo sapiens, 48 h exposure
Method in brief: as §1

[8] = test system: HOP92; experiment: NCI SRB cytotoxicity, non-small cell lung HOP92; type: cell-based; settings: Homo sapiens, HOP-92, 48 h exposure
Experimental: as §2

[9] = test system: RXF 393; experiment: NCI SRB cytotoxicity, renal RXF 393; type: cell-based; settings: Homo sapiens, 48 h exposure
Method in brief: as §1

[10] = test system: Non-small cell lung; experiment: NCI SRB cytotoxicity, non-small cell lung panel average; type: cell-based, human; settings: average of cell lines
Method in brief: (§3)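 Per NCI protocol, cell lines faced 48 h continuous compound exposure at five or more 10-fold concentrations, with growth estimated by sulforhodamine B protein staining. GI50, TGI and LC50 were referenced to DMSO control; each cancer-type value averages six to eight cell lines.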

[11] = test system: SNB-75; experiment: NCI SRB cytotoxicity, CNS SNB-75; type: cell-based; settings: Homo sapiens, 48 h exposure
Method in brief: as §1

[12] = test system: OVCAR-3; experiment: NCI SRB cytotoxicity, ovarian OVCAR-3; type: cell-based; settings: Homo sapiens, 48 h exposure
Method in brief: as §1

[13] = test system: NCI-H460; experiment: NCI SRB cytotoxicity, non-small cell lung NCI-H460; type: cell-based; settings: Homo sapiens, 48 h exposure
Method in brief: as §1

[14] = test system: SN12C; experiment: NCI SRB cytotoxicity, renal SN12C; type: cell-based; settings: Homo sapiens, 48 h exposure
Method in brief: as §1

[15] = test system: HL-60(TB); experiment: NCI SRB cytotoxicity, leukemia HL-60(TB); type: cell-based; settings: Homo sapiens, 48 h exposure
[16] = test system: Leukemia; experiment: NCI SRB cytotoxicity, leukemia panel average; type: cell-based, human; settings: average of cell lines
Method in brief: as §3

[17] = test system: NCI-H23; experiment: NCI SRB cytotoxicity, non-small cell lung NCI-H23; type: cell-based; settings: Homo sapiens, 48 h exposure
Method in brief: as §1

[18] = test system: Renal; experiment: NCI SRB cytotoxicity, renal panel average; type: cell-based, human; settings: average of cell lines
Method in brief: as §3

[19] = test system: CCRF-CEM; experiment: NCI SRB cytotoxicity, leukemia CCRF-CEM; type: cell-based; settings: Homo sapiens, 48 h exposure
Method in brief: as §1

[20] = test system: UO-31; experiment: NCI SRB cytotoxicity, renal UO-31; type: cell-based; settings: Homo sapiens, 48 h exposure
Method in brief: as §1

[21] = test system: U251; experiment: NCI SRB cytotoxicity, CNS U251; type: cell-based; settings: Homo sapiens, U-251, 48 h exposure
Experimental: as §2

[22] = test system: MCF7; experiment: NCI SRB cytotoxicity, breast MCF7; type: cell-based; settings: Homo sapiens, 48 h exposure
Method in brief: as §1

[23] = test system: UACC-62; experiment: NCI SRB cytotoxicity, melanoma UACC-62; type: cell-based; settings: Homo sapiens, 48 h exposure
Method in brief: as §1

[24] = test system: Colon; experiment: NCI SRB cytotoxicity, colon panel average; type: cell-based, human; settings: average of cell lines
Method in brief: as §3

[25] = test system: PC-3; experiment: NCI SRB cytotoxicity, prostate PC-3; type: cell-based; settings: Homo sapiens, 48 h exposure
Method in brief: as §1

[26] = test system: A549/ATCC; experiment: NCI SRB cytotoxicity, non-small cell lung A549/ATCC; type: cell-based; settings: Homo sapiens, 48 h exposure
Method in brief: as §1

[27] = test system: Ovarian; experiment: NCI SRB cytotoxicity, ovarian panel average; type: cell-based, human; settings: average of cell lines
Method in brief: as §3

[28] = test system: Melanoma; experiment: NCI SRB cytotoxicity, melanoma panel average; type: cell-based, human; settings: average of cell lines
Method in brief: as §3

[29] = test system: MDA-MB-231/ATCC; experiment: NCI SRB cytotoxicity, breast MDA-MB-231/ATCC; type: cell-based; settings: Homo sapiens, 48 h exposure
Method in brief: as §1

[30] = test system: Prostate; experiment: NCI SRB cytotoxicity, prostate panel average; type: cell-based, human; settings: average of cell lines
Method in brief: as §3

[31] = test system: K-562; experiment: NCI SRB cytotoxicity, leukemia K-562; type: cell-based; settings: Homo sapiens, K562, 48 h exposure
Method in brief: as §1

[32] = test system: MOLT-4; experiment: NCI SRB cytotoxicity, leukemia MOLT-4; type: cell-based; settings: Homo sapiens, 48 h exposure
Method in brief: as §1

[33] = test system: SF-295; experiment: NCI SRB cytotoxicity, CNS SF-295; type: cell-based; settings: Homo sapiens, 48 h exposure
Experimental: as §2

[34] = Homo sapiens, read-out: Log10 LC50 (concentration in mol/L causing 50% cell death) (converted)

COc1ccc(C(=O)/C=C/c2cc(-c3ccc4c(c3)OCO4)n[nH]2)cc1OC [8f, (E)-3-(3-(benzo[d][1,3]dioxol-5-yl)-1H-pyrazol-5-yl)-1-(3,4-dimethoxyphenyl)prop-2-en-1-one]
GI50 [1]: 2.8 µM | GI50 [2]: 7.06 µM | GI50 [3]: 6.93 µM | GI50 [4]: 2.6 µM | GI50 [5]: 2.43 µM | GI50 [6]: 1.8 µM | GI50 [7]: 1.91 µM | GI50 [8]: 2.16 µM | GI50 [9]: 2.42 µM | LC50 [10, 34]: 0.000513 mol/L | Log10 GI50 (concentration in mol/L causing 50% growth inhibition) [10]: −5.6 mol/L | Log10 TGI (concentration in mol/L causing total growth inhibition (0% growth)) [10]: −5.08 mol/L | GI50 [11]: 1.98 µM | GI50 [12]: 2.02 µM | GI50 [13]: 1.81 µM | GI50 [14]: 3.25 µM | GI50 [15]: 2.82 µM | CC50 [16, 34]: 0.0001 mol/L | Log10 GI50 (concentration in mol/L causing 50% growth inhibition) [16]: −5.69 mol/L | Log10 TGI (concentration in mol/L causing total growth inhibition (0% growth)) [16]: −5.03 mol/L | GI50 [17]: 4.12 µM | CC50 [18, 34]: 32.4 µM | Log10 GI50 (concentration in mol/L causing 50% growth inhibition) [18]: −5.46 mol/L | Log10 TGI (concentration in mol/L causing total growth inhibition (0% growth)) [18]: −5.01 mol/L | GI50 [19]: 2.52 µM | GI50 [20]: 2.3 µM | GI50 [21]: 1.58 µM | GI50 [22]: 3.2 µM | GI50 [23]: 4.1 µM | LC50 [24, 34]: 0.000676 mol/L | Log10 GI50 (concentration in mol/L causing 50% growth inhibition) [24]: −5.52 mol/L | Log10 TGI (concentration in mol/L causing total growth inhibition) [24]: −4.85 mol/L | GI50 [25]: 2.5 µM | GI50 [26]: 2.7 µM | CC50 [27, 34]: 52.5 µM | Log10 GI50 (concentration in mol/L causing 50% growth inhibition) [27]: −5.58 mol/L | Log10 TGI (concentration in mol/L causing total growth inhibition (0% growth)) [27]: −4.87 mol/L | LC50 [28, 34]: 0.00105 mol/L | Log10 GI50 (concentration in mol/L causing 50% growth inhibition) [28]: −5.79 mol/L | Log10 TGI (concentration in mol/L causing total growth inhibition) [28]: −4.80 mol/L | GI50 [29]: 2.4 µM | CC50 [30, 34]: 31.6 µM | Log10 GI50 (concentration in mol/L causing 50% growth inhibition) [30]: −5.66 mol/L | Log10 TGI (concentration in mol/L causing total growth inhibition (0% growth)) [30]: −5.05 mol/L | GI50 [31]: 2.47 µM | GI50 [32]: 3 µM | GI50 [33]: 2.51 µM

Source: patent US9604933B2, “Pyrazolochalcones as potential anticancer agents” (COUNCIL OF SCIENTIFIC AND INDUSTRIAL RESEARCH, priority 2013, dated 2017)
